In brackets after ≈: the same amount, converted by molar mass.
Assays:
[1] = tested on: Mycobacterium tuberculosis; test: Antimycobacterial activity against Mycobacterium tuberculosis H37Rv mc2 6206 assessed as inhibition of bacterial growth measured after 7 days by visual analysis; assay type: functional; settings: H37Rv mc2 6206, 168 h, time 7 day
[2] = tested on: Mycobacteroides abscessus; test: Antimycobacterial activity against Mycobacterium abscessus […] assessed as inhibition of bacterial growth measured after 5 days by visual analysis; assay type: functional; settings: 120 h, time 5 day
Mycobacteroides chelonae = test: Antimycobacterial activity against Mycobacteroides chelonae ATCC 35752 assessed as inhibition of bacterial growth by visual analysis; assay type: functional
[3] = Metabolic stability in mouse liver S9 fraction assessed as parent compound remaining at 5 ug/ml after 90 mins in presence of NADPH by LC/MS analysis; assay type: ADME, subcellular; settings: s9, 1.5 h, dose 5 µg/ml
[4] = Kinetic solubility of compound at pH 7.4 incubated for 6 hrs by LC-MS/MS analysis; assay type: physicochemical; settings: buffer, read-out: Kinetic_solubility
[5] = Metabolic stability in human liver S9 fraction assessed as parent compound remaining at 5 ug/ml after 90 mins in presence of NADPH by LC/MS analysis; assay type: ADME, subcellular; settings: s9, 1.5 h, dose 5 µg/ml
[6] = Selectivity index, ratio of IC50 for Cytotoxicity against human WI26VA4 cells to MIC for antimycobacterial activity against Mycobacterium tuberculosis H37Rv mc2 6206; assay type: toxicity, cell-based; settings: read-out: Selectivity Index
[7] = tested on: Mycobacterium intracellulare subsp. chimaera; test: Antimycobacterial activity against Mycobacterium intracellulare subsp. chimaera 1501948 assessed as inhibition of bacterial growth by visual analysis; assay type: functional
Mycobacterium kansasii = test: Antimycobacterial activity against Mycobacterium kansasii ATCC 1279 assessed as inhibition of bacterial growth by visual analysis; assay type: functional
[8] = Plasma protein binding in human at 10 ug/ml incubated for 4 hrs under shaking condition by LC/MS/MS analysis; assay type: ADME, cell-free; settings: at 10 µg/mL, read-out: PPB (converted)
[9] = Antimycobacterial activity against Mycobacterium avium subsp. avium 2585R assessed as inhibition of bacterial growth by visual analysis; assay type: functional
[10] = Selectivity index, ratio of IC50 for Cytotoxicity against human WI26VA4 cells to MIC for antimycobacterial activity against Mycobacterium abscessus […]; assay type: toxicity, cell-based; settings: read-out: Selectivity Index
[11] = Cytotoxicity against human WI26VA4 cells assessed as inhibition of cell growth measured after 72 hrs by MTT assay; assay type: toxicity, cell-based
[12] = tested on: Mycobacterium intracellulare; test: Antimycobacterial activity against Mycobacterium intracellulare 1956 assessed as inhibition of bacterial growth by visual analysis; assay type: functional
[13] = Permeability of the compound by PAMPA method; assay type: ADME
[14] = tested on: Mycolicibacterium fortuitum; test: Antimycobacterial activity against Mycobacterium fortuitum ATCC 6841 assessed as inhibition of bacterial growth by visual analysis; assay type: functional

Cc1ccc(NCC(=O)NC23CC4CC(CC(C4)C2)C3)cc1
MIC [1]: 32 µg/mL (≈ 107 µM) | MIC [2]: 32 µg/mL (≈ 107 µM)

O=C(CNc1ccccc1)NC1CCCCCCC1
MIC [1]: 8 µg/mL (≈ 30.7 µM) | MIC [2]: 8 µg/mL (≈ 30.7 µM)

O=C(CNc1ccccc1Br)NC12CC3CC(CC(C3)C1)C2
MIC [1]: 8 µg/mL (≈ 22 µM) | MIC [2]: 8 µg/mL (≈ 22 µM)

C[C@@H]1[C@H]2C[C@@H](C[C@H]1NC(=O)CNc1cccc(Br)c1)C2(C)C
MIC [1]: 0.5 µg/mL (≈ 1.37 µM) | MIC (Mycobacteroides chelonae): 8 µg/mL (≈ 21.9 µM) | t1/2 [3]: 5.8 h | MIC [2]: 1 µg/mL (≈ 2.74 µM) | solubility kinetic at 6 h [4]: 18.6 µg/mL (≈ 50.9 µM) | t1/2 [5]: 4.2 h | selectivity ratio [6]: > 40 | MIC [7]: 16 µg/mL (≈ 43.8 µM) | MIC (Mycobacterium kansasii): 8 µg/mL (≈ 21.9 µM) | fraction unbound at 4 h, 10 ug/ml [8]: 0.045 | MIC [9]: 16 µg/mL (≈ 43.8 µM) | selectivity ratio [10]: > 20 | IC50 [11]: > 20 µg/mL | MIC [12]: 8 µg/mL (≈ 21.9 µM) | permeability [13]: 1.01 10^-6 cm/s | MIC [14]: 2 µg/mL (≈ 5.47 µM)

CNC(=C[N+](=O)[O-])NCCSCc1ccc(CN(C)C)o1 [RANITIDINE]
solubility kinetic at 6 h [4]: 77.5 µg/mL (≈ 246 µM) | fraction unbound at 4 h, 10 ug/ml [8]: 0.793 | permeability [13]: 3.47 10^-6 cm/s

O=C(CNc1ccc(OC(F)(F)F)cc1)NC1CCCCCCC1
MIC [1]: 32 µg/mL (≈ 92.9 µM) | MIC [2]: 8 µg/mL (≈ 23.2 µM)

O=C(CNc1ccccc1)NC12CC3CC(CC(C3)C1)C2
MIC [1]: 32 µg/mL (≈ 113 µM) | MIC [2]: 16 µg/mL (≈ 56.3 µM)

O=C(CNc1ccc(OC(F)(F)F)cc1)NC1C2CC3CC(C2)CC1C3 (stereo unspecified)
MIC [1]: 4 µg/mL (≈ 10.9 µM) | t1/2 [3]: 3.7 h | MIC [2]: 2 µg/mL (≈ 5.43 µM) | solubility kinetic at 6 h [4]: 20.3 µg/mL (≈ 55.1 µM) | t1/2 [5]: 5.9 h | selectivity ratio [6]: > 5 | fraction unbound at 4 h, 10 ug/ml [8]: 0.033 | selectivity ratio [10]: > 10 | IC50 [11]: > 20 µg/mL | permeability [13]: 3.12 10^-6 cm/s

C[C@H]1CC[C@H](NC(=O)CNc2ccccc2)CC1
MIC [1]: 64 µg/mL (≈ 260 µM) | MIC [2]: > 64 µg/mL

O=C(CNc1ccc(C(F)(F)F)cc1)NC12CC3CC(CC(C3)C1)C2
MIC [1]: 8 µg/mL (≈ 22.7 µM) | MIC [2]: 8 µg/mL (≈ 22.7 µM)

O=C(CNc1ccc(C(F)(F)F)cc1)NC1C2CC3CC(C2)CC1C3 (stereo unspecified)
MIC [1]: 2 µg/mL (≈ 5.68 µM) | t1/2 [3]: 15.6 h | MIC [2]: 4 µg/mL (≈ 11.4 µM) | solubility kinetic at 6 h [4]: 23.9 µg/mL (≈ 67.8 µM) | t1/2 [5]: 5.8 h | selectivity ratio [6]: > 10 | fraction unbound at 4 h, 10 ug/ml [8]: 0.057 | selectivity ratio [10]: > 5 | IC50 [11]: > 20 µg/mL | permeability [13]: 0.34 10^-6 cm/s

O=C(CNc1ccc(Cl)cc1)NC1CCCCCCC1
MIC [1]: 64 µg/mL (≈ 217 µM) | MIC [2]: 32 µg/mL (≈ 109 µM)

Cc1ccc(NCC(=O)NC2C3CC4CC(C3)CC2C4)cc1 (stereo unspecified)
MIC [1]: 4 µg/mL (≈ 13.4 µM) | MIC [2]: 16 µg/mL (≈ 53.6 µM)

O=C(CNc1ccccc1Cl)NC12CC3CC(CC(C3)C1)C2
MIC [1]: 8 µg/mL (≈ 25.1 µM) | MIC [2]: 16 µg/mL (≈ 50.2 µM)

COc1ccc(NCC(=O)NC2CCCCCCC2)cc1
MIC [1]: 64 µg/mL (≈ 220 µM) | MIC [2]: > 64 µg/mL

O=C(CNc1ccc(Cl)cc1)NC12CC3CC(CC(C3)C1)C2
MIC [1]: 16 µg/mL (≈ 50.2 µM) | MIC [2]: 4 µg/mL (≈ 12.5 µM)

Cc1ccc(NCC(=O)N[C@H]2CC[C@H](C)CC2)cc1
MIC [1]: 64 µg/mL (≈ 246 µM) | MIC [2]: > 64 µg/mL

C[C@@H]1[C@H]2C[C@@H](C[C@H]1NC(=O)CNc1ccccc1Cl)C2(C)C
MIC [1]: 0.25 µg/mL (≈ 0.779 µM) | MIC (Mycobacteroides chelonae): 4 µg/mL (≈ 12.5 µM) | t1/2 [3]: 8.6 h | MIC [2]: 1 µg/mL (≈ 3.12 µM) | solubility kinetic at 6 h [4]: 14.3 µg/mL (≈ 44.6 µM) | t1/2 [5]: 5.1 h | selectivity ratio [6]: > 80 | MIC [7]: > 64 µg/mL | MIC (Mycobacterium kansasii): 16 µg/mL (≈ 49.9 µM) | fraction unbound at 4 h, 10 ug/ml [8]: 0.045 | MIC [9]: 16 µg/mL (≈ 49.9 µM) | selectivity ratio [10]: > 20 | IC50 [11]: > 20 µg/mL | MIC [12]: 16 µg/mL (≈ 49.9 µM) | permeability [13]: 0.38 10^-6 cm/s | MIC [14]: 2 µg/mL (≈ 6.23 µM)

C[C@@H]1[C@H]2C[C@@H](C[C@H]1NC(=O)CNc1ccc(OC(F)(F)F)cc1)C2(C)C
MIC [1]: 4 µg/mL (≈ 10.8 µM) | t1/2 [3]: 4.1 h | MIC [2]: 1 µg/mL (≈ 2.7 µM) | solubility kinetic at 6 h [4]: 4.5 µg/mL (≈ 12.1 µM) | t1/2 [5]: 9.2 h | selectivity ratio [6]: > 5 | fraction unbound at 4 h, 10 ug/ml [8]: 0.048 | selectivity ratio [10]: > 20 | IC50 [11]: > 20 µg/mL | permeability [13]: 3.19 10^-6 cm/s

— ChEMBL document CHEMBL5316284, “Structural Determinants of Indole-2-carboxamides: Identification of Lead Acetamides with Pan Antimycobacterial Activity” (J Med Chem, 2023)
